From patent US8580321B2, “Method for reducing the effects of chemotherapy using flagellin related polypeptides” (priority 2003, dated 2013)

Assays:
[1] = system: mice; conditions: known from literature; cited from earlier work
[2] = system: vascular endothelial cells of villi; experiment: TUNEL assay of apoptosis in intestinal tissue after irradiation; type: in vivo, mouse; conditions: 5 hours post irradiation, pretreated mice
Excerpt: In addition to purely histological observation of cell death and survival, we performed more specialized tests of apoptotic cell death in intestinal tissue using a TUNEL assay, which detects apoptosis-associated DNA fragmentation. These experiments allowed us to define with a high degree of probability cellular populations that are depleted by radiation and rescued by flagellin fragment treatment. The earliest radiation-induced alterations detectable in the small intestine after treatment with IR is apoptosis occurring in vascular endothelial cells of villi, which is seen as early as 5 hours post treatment (FIG. 17B). […] Effective protection of endothelial cells of the small intestine by the flagellin fragment may be due to expression of TLR5 in these cells.

[3] = system: small intestinal crypts; experiment: BrdU incorporation in small intestinal crypts; type: in vivo, mouse
Excerpt: Besides a direct inhibition of apoptosis, temporary halt of proliferation followed by repair may be an alternative mechanism of radioprotection, and has been described for other radioprotectors such as TGF-β3 (Booth D., et. al., Int J Cancer. 2000 Apr. 1; 86(1):53-9). Accordingly, we decided to examine the possible influence of CBLB502 (AA′) on the proliferative activity of the cells in small intestine (with and without irradiation) during the first hours after its administration (FIG. 32). CBLB502 or PBS was injected i.p. in mice, followed after 30 min by 15 Gy irradiation (if used). 2 hr after injection (1.5 hr after irradiation if it was applied), BrdU was injected intraperitoneally. Samples of small intestine were obtained after additional 1.5 hours.
We next determined the duration of the CBLB502-induced growth arrest in small intestine. CBLB502 or PBS was injected i.p. in mice, BrdU was injected 1 or 4 hours later and samples of small intestine were obtained after additional 1.5 hours from several mice (samples from three mice are shown) (FIG. 33).

[4] = system: colonic crypts; experiment: BrdU incorporation in colonic crypts; type: in vivo, mouse; conditions: BrdU injected 1 hour after CBLB502 i.p.
Protocol: The colon is much less radiosensitive than small intestine. To further examine the relationship between reduced proliferation in the small intestine and radioprotection, we determined the effect of CBLB502 on BrdU incorporation in the colon. CBLB502 or PBS was injected i.p. in mice, BrdU was injected 1 hour later and samples of […] were obtained after additional 1.5 hours (FIG. 34).

[5] = system: NIH Swiss mice treated with cisplatinum
[6] = Blood urea (QuantiChrom Urea Assay Kit) as renal toxicity of cisplatinum; conditions: 0.04 mg/kg s.c., Day 4 post-treatment, n=3
Excerpt: Urea was detected in mouse blood serum at Day 4 post-treatment using a QuantiChrom Urea Assay Kit (BioAssay Systems).

[7] = CBLB502 0.04 mg/kg s.c. 30 min before cisplatinum 20 mg/kg i.p.

Row | Substance | highest tolerable dose [1] | apoptosis in vascular endothelial cells of villi [2] | incorporation of BrdU in intestine, BrdU after 1 hour ([3]; BrdU injected 1 hour after CBLB502) | incorporation/DNA synthesis, BrdU after 4 hr ([3]; BrdU injected 4 hr after CBLB502) | level of BrdU incorporation, irradiated mice ([3]; i.p. 30 min before 15 Gy, NIH-Swiss mice) | DNA synthesis (BrdU incorporation) in crypts, no irradiation ([3]; i.p., BrdU 2 hr after injection, NIH-Swiss mice) | BrdU incorporation in colon [4] | mean weight loss on any given day, cisplatinum 10 mg/kg with CBLB502 ([5]; CBLB502 0.04 mg/kg 30 min prior, n=11) | weight response, cisplatinum 10 mg/kg with CBLB502 ([5]; CBLB502 0.04 mg/kg s.c. 30 min before cisplatinum 10 mg/kg i.p.) | maximum weight loss, cisplatinum 20 mg/kg with CBLB502 [5, 7] | survival of animals, cisplatinum 20 mg/kg with CBLB502 [5, 7] | behavior, cisplatinum with single injection of CBLB502 ([5]; FIG. 39D) | deaths, cisplatinum 10 mg/kg with CBLB502 ([5]; FIG. 39 experiment) | mice that died, cisplatinum 10 mg/kg with CBLB502 ([5]; death at Day 13, remaining mice survived to at least Day 30) | mean OD 490 (blood urea), CLBL502 alone [6]
1 | flagellin: Salmonella dublin FliC flagellin, 505 amino acids, SEQ ID NO: 1; recombinant full-length protein | 300 μg/mouse | – | – | – | – | – | – | – | – | – | – | – | – | – | –
2 | AA′: flagellin fragment (1-177)-Linker-(402-505), SEQ ID NO: 8 | – | almost completely blocked | reduced as compared to control | even higher than in control | strongly reduced | nearly undetectable | no effect | ≤ 15% | not losing weight | ≤ 20% | 100% | active animals | No deaths | one mouse out of eleven | less than 0.50
